By IC50 is commonly meant the concentration needed to halve the response being measured. By inhibition is commonly meant the share of the control response that was lost under treatment.

Converted amounts (≈) assume the structure as drawn.

Data set [1] concerns MCF7. The data set can be described thus: Antiproliferative activity against human MCF7 cells assessed as inhibition of cell growth at 10 uM incubated for 48 hrs by SRB assay relative to control. Set-up: scale not given: the % may be the effect or the level left. Type of data set: functional. In general terms: The SRB assay estimates cell density from bound dye.
A further data set has as its system Rhizoctonia solani. The data set can be described thus: Antifungal activity Rhizoctonia solani assessed as fungal growth inhibition measured after 4 to 8 days. Type of data set: functional, organism-based.
For a further data set, the system named is HepG2. The data set can be described thus: Cytotoxicity against human HepG2 cells assessed as reduction in cell viability incubated for 72 hrs by MTT assay. Type of data set: functional, cell-based. Particulars: HepG2, 72 h. On the technique in general: Tetrazolium dyes change colour on reduction, which living cells bring about.
For data set [2], the target named is Telomerase reverse transcriptase (Homo sapiens, UniProt O14746). Description: Inhibition of telomerase (unknown origin).
The next data set relates to HCT-116. The data set can be described thus: Antiproliferative activity against human HCT-116 cells assessed reduction in cell growth incubated for 24 hrs by MTT assay. Type of data set: functional, cell-based. Particulars: HCT-116, 24 h.
Data set [3] is described as follows: Antiproliferative activity against mouse […] cells assessed as inhibition of cell growth incubated for 48 hrs by MTT assay. Type of data set: functional, cell-based.
The target of the next data set is Coagulation factor X (Homo sapiens, UniProt P00742). Description: Inhibition of human factor Xa.
The nature of data set [4]: Cytotoxicity against African green monkey Vero cells incubated for 48 hrs by SRB colorimetric assay. Type of data set: toxicity, cell-based, Chlorocebus sabaeus.
The subject of the next data set is 4T1. The data set can be described thus: Cytotoxicity against mouse 4T1 cells assessed as reduction in cell growth incubated for 48 hrs by MTT assay. The format is functional, cell-based. To be noted: 4T1, 48 h.
For a further data set, the system named is HUVEC. The data set can be described thus: Antiproliferative activity against VEGF-stimulated human HUVEC cells assessed as reduction in cell viability incubated for 72 hrs by Cell Counting Kit-8 assay. Type of data set: functional, cell-based.
Data set [5] can be described thus: Antiproliferative activity against mouse L929 cells assessed as inhibition of cell growth incubated for 5 days by MTT assay. Type of data set: toxicity, cell-based.
Another data set deals with MDA-MB-231. Description: Antiproliferative activity against human MDA-MB-231 cells assessed as reduction in cell growth incubated for 48 hrs by MTT assay. The format is functional, cell-based. To be noted: MDA-MB-231, 48 h.
Data set [6] deals with MCF7. The data set can be described thus: Antiproliferative activity against human MCF7 cells assessed as reduction in cell growth incubated for 48 hrs by MTT assay. The format is functional, cell-based. To be noted: MCF7, 48 h.
For the next data set, the system named is PC-3. The data set can be described thus: Antiproliferative activity against human PC-3 cells assessed as reduction in cell viability incubated for 24 hrs by MTT assay. The format is functional, cell-based. Particulars: PC-3, 24 h.
Another data set relates to HeLa. Description: Antiproliferative activity against human HeLa cells assessed as reduction in cell viability incubated for 24 hrs by MTT assay. The format is functional, cell-based.
The subject of a further data set is HT-29. Description: Antiproliferative activity against human HT-29 cells assessed as reduction in cell viability incubated for 24 hrs by MTT assay. Particulars: HT-29, 24 h. Type of data set: functional, cell-based.
For a further data set, the system named is NCI-H460. Description: Cytotoxicity against human NCI-H460 cells assessed as reduction in cell growth incubated for 72 hrs by CCK-8 assay. The format is functional, cell-based. Particulars: NCI-H460, 72 h.
A further data set deals with NCI-H1299. The data set can be described thus: Cytotoxicity against human NCI-H1299 cells assessed as reduction in cell growth incubated for 72 hrs by CCK-8 assay. Type of data set: functional, cell-based. To be noted: NCI-H1299, 72 h.
The test system of a further data set is OVCAR-5. Description: Cytotoxicity against human OVCAR-5 cells assessed as reduction in cell growth incubated for 72 hrs by CCK-8 assay. Type of data set: functional, cell-based. Particulars: OVCAR-5, 72 h.
Another data set deals with A549. Description: Cytotoxicity against human A549 cells assessed as reduction in cell growth incubated for 72 hrs by CCK-8 assay. Type of data set: functional, cell-based. To be noted: A549, 72 h.
For a further data set, the system named is HEY. Description: Cytotoxicity against human HEY cells assessed as reduction in cell growth incubated for 72 hrs by CCK-8 assay. Type of data set: functional, cell-based.
In the next data set the test system is ES-2. The data set can be described thus: Cytotoxicity against human ES2 cells assessed as reduction in cell growth incubated for 72 hrs by CCK-8 assay. The format is functional, cell-based. Particulars: ES-2, 72 h.
The subject of another data set is SK-OV-3. The data set can be described thus: Cytotoxicity against human SK-OV-3 cells assessed as reduction in cell growth incubated for 72 hrs by CCK-8 assay. Type of data set: functional, cell-based. To be noted: SK-OV-3, 72 h.
Another data set concerns SW626. The data set can be described thus: Cytotoxicity against human SW626 cells assessed as reduction in cell growth incubated for 72 hrs by CCK-8 assay. The format is functional, cell-based. To be noted: SW626, 72 h.
The next data set deals with Caco-2. The data set can be described thus: Cytotoxicity against human Caco-2 cells assessed as reduction in cell growth incubated for 72 hrs by CCK-8 assay. Type of data set: functional, cell-based. To be noted: Caco-2, 72 h.
For another data set, the target named is Acetylcholinesterase (Homo sapiens, UniProt P22303). The data set can be described thus: Inhibition of AChE (unknown origin).
The next data set addresses Cholinesterase (Homo sapiens, UniProt P06276). Description: Inhibition of BchE (unknown origin).
For data set [7], the target named is T1, Fibroblast growth factor receptor 1 (Homo sapiens, UniProt P11362). Description: Inhibition of human recombinant FGFR1 at 1 uM by Enzyme-linked immunosorbent assay relative to control.
Data set [8] addresses T1, Fibroblast growth factor receptor 1. The data set can be described thus: Inhibition of human recombinant FGFR1 at 10 uM by Enzyme-linked immunosorbent assay relative to control.

T1 sequence (P11362 22-822 limits assumed): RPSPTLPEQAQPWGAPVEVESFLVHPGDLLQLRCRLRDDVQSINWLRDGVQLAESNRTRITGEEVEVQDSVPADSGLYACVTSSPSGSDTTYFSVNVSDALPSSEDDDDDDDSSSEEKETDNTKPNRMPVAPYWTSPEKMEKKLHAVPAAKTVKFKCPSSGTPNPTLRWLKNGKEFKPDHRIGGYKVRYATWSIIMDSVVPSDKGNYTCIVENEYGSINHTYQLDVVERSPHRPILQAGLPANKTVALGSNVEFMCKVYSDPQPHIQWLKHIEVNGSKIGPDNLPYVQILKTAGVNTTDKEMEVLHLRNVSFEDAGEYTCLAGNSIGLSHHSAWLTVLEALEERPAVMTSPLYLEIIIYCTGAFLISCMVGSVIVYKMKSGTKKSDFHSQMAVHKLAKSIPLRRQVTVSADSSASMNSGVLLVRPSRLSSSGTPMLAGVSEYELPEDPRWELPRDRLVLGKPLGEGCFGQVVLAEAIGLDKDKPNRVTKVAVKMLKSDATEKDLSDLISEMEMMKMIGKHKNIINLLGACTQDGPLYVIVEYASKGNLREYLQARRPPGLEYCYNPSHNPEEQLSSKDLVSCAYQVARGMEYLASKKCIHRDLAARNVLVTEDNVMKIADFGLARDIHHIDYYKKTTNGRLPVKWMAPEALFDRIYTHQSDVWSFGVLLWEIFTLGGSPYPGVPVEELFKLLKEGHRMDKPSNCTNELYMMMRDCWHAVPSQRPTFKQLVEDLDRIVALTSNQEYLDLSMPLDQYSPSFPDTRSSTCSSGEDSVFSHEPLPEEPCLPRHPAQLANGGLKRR
Chain of Coagulation factor X (P00742 41-179 limits assumed): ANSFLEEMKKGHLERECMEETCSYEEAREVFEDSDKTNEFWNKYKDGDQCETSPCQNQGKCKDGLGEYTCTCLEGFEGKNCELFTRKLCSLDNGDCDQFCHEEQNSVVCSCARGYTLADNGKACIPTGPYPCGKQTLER
Chain of Coagulation factor X (P00742 235-488 limits assumed): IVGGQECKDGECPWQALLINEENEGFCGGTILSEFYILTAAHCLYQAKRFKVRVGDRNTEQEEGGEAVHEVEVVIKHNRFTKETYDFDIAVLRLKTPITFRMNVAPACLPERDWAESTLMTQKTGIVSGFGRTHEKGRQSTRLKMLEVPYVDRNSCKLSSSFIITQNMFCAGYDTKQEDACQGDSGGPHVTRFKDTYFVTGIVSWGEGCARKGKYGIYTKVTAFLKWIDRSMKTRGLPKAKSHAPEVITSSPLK
Chain of Cholinesterase (P06276 whole entry): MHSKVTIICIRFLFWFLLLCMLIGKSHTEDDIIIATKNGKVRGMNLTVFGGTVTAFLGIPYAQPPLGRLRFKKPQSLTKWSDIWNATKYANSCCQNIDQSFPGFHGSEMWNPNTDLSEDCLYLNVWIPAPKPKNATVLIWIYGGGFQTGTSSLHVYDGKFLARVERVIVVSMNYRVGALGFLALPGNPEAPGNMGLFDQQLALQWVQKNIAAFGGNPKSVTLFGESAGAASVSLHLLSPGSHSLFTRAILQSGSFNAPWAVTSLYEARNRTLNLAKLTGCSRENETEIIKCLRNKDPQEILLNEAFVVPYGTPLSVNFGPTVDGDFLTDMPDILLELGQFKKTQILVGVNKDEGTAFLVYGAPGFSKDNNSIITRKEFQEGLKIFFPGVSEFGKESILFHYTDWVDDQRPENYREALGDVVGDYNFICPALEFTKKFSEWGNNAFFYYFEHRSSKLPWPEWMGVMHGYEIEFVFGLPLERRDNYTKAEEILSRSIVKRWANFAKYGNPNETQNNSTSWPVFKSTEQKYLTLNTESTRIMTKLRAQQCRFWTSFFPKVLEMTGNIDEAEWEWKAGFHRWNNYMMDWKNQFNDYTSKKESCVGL
Chain of Telomerase reverse transcriptase (O14746 whole entry): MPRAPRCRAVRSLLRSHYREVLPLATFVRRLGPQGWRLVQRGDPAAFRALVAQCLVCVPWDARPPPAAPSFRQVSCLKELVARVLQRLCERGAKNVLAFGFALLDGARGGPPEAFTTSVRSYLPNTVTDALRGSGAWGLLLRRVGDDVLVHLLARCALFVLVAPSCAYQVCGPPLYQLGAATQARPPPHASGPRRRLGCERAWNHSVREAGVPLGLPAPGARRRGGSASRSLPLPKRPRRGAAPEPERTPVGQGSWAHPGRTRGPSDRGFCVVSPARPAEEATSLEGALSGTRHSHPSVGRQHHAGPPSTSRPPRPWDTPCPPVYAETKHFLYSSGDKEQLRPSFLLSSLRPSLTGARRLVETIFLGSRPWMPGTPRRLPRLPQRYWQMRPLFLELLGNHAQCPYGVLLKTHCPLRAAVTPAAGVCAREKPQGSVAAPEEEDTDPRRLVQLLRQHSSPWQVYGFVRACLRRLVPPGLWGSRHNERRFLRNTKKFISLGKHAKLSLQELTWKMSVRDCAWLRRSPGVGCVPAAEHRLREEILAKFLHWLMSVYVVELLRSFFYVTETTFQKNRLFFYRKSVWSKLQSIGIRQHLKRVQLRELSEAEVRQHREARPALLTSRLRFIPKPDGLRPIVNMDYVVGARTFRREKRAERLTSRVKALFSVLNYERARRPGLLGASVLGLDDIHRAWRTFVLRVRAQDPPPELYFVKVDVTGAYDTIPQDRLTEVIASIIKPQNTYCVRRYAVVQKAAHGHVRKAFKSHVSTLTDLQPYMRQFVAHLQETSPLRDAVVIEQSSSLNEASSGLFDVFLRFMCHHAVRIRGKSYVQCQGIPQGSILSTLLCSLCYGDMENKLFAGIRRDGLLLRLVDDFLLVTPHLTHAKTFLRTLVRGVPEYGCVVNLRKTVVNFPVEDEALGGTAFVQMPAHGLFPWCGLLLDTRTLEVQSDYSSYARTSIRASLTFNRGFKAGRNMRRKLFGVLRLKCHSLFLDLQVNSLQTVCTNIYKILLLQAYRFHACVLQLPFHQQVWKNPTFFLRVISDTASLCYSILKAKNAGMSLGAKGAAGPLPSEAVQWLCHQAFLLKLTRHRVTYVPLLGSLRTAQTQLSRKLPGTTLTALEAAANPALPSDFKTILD
Chain of Acetylcholinesterase (P22303 whole entry): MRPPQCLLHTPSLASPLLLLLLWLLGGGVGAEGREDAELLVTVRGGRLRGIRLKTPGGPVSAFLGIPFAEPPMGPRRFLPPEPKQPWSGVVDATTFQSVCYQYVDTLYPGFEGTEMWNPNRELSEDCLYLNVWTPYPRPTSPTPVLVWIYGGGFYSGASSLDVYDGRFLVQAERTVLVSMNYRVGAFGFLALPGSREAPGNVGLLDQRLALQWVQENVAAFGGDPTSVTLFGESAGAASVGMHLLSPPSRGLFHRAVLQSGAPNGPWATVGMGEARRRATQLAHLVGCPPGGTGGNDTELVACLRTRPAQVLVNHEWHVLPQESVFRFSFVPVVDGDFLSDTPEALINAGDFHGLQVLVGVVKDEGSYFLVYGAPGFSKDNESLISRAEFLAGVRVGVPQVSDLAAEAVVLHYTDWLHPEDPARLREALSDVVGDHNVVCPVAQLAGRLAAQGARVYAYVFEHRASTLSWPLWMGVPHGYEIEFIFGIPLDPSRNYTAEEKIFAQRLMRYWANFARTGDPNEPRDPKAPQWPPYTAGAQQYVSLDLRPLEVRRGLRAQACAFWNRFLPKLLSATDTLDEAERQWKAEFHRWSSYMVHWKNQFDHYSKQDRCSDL

As to `O=C1c2cc3ccccc3n2C(=O)C2Cc3ccncc3N12` (stereo not drawn), in the data set on MCF7 [1], the Activity amounted to 50.6%.

As for `Cc1cnc(COC(=O)c2ccccc2)cn1`, the EC50 with Rhizoctonia solani came to 0.021 µg/mL (≈ 0.092 µM).

`Brc1ccc(CSc2nnc(-c3cnccn3)s2)cc1`: the IC50 in the data set with HepG2 worked out at 780 nM; in data set [2], 1240 nM.

For `C[C@@H]1[C@]2(O[C@H]3C=C4[C@@H]5CC[C@H]6Cc7nc8c(nc7C[C@]6(C)[C@H]5C[C@@H](O)[C@]4(C)[C@]31O)C[C@@H]1CC[C@H]3C4=CC5O[C@@]6(CCC(C)(C)O6)[C@@H](C)[C@@H]5[C@@]4(C)[C@H](O)C[C@@H]3[C@@]1(C)C8)O[C@](C)(COC(=O)CNC(=O)Cc1cc(=O)oc3cc(N(C)C)ccc13)C[C@H]2O` (stereo partly drawn), the IC50 with HCT-116 was found to be 84 nM.

As for `CCn1nc(C2CCN(C(=O)CCO)CC2)nc1-c1cnc(N)c(-c2nnc(C(C)(C)C)o2)n1` [AZD-8835], the IC50 in data set [3] (48 h) came to 930 nM.

Turning to `CN1C2(CCN(c3ccncc3)CC2)CN2C(=O)CN(S(=O)(=O)c3ccc4cc(Cl)ccc4c3)CC21CO` (stereo not drawn), it took 0.58 nM to reach half-maximal inhibition against Coagulation factor X (IC50).

For `C[C@@H]1[C@@]2(CC[C@](C)(O)CO2)O[C@H]2C=C3[C@@H]4[C@@H](O)C[C@H]5Cc6nc7c(nc6C[C@]5(C)[C@H]4C[C@@H](O)[C@]3(C)[C@]21O)C[C@@H]1CC[C@@H]2[C@H](CC(=O)[C@]23C[C@@H]2O[C@]4(CCC(C)(C)O4)[C@@H](C)[C@@H]2[C@]3(C)O)[C@@]1(C)C7` [RITTERAZINE D], the EC50 in [3] (time 48 hrs, read-out: ED50 (the source's name)) was 0.17 nM.

Molecule `COC(=O)c1sc2nccnc2c1Nc1ccccc1OC` displayed an IC50 at 48 h in data set [4] of 21300 nM.

Turning to `Cc1nc(C)c(C(=O)NCCCCCCCCCCCCNOC(=O)c2ccc3cc[nH]c3c2)nc1C`, the IC50 was 1160 nM in the data set on 4T1, 3820 nM with HUVEC, 840 nM in the data set on MDA-MB-231 and 1110 nM with MCF7 [6]. The IC50 at 5 days in [5] is 3160 nM.

For `CN(CCCN(C)CCN1C(=O)c2cccc3c(N)c(N)cc(c23)C1=O)CCN1C(=O)c2cccc3c(N)c(N)cc(c23)C1=O`, the IC50 was 180 nM with PC-3, 90 nM with HeLa and 60 nM with HT-29.

For `COc1nccc2c1N1C(=O)c3cc4ccccc4n3C(=O)C1C2` (stereo not drawn), the Activity with MCF7 [1] amounted to 50.9%.

In turn, `C[C@@H]1[C@]2(O[C@H]3C=C4[C@@H]5CC[C@H]6Cc7nc8c(nc7C[C@]6(C)[C@H]5C[C@@H](O)[C@]4(C)[C@]31O)C[C@@H]1CC[C@H]3C4=CC5O[C@@]6(CCC(C)(C)O6)[C@@H](C)[C@@H]5[C@@]4(C)[C@H](O)C[C@@H]3[C@@]1(C)C8)O[C@@](C)(COC(=O)CNC(=O)Cc1cc(=O)oc3cc(N(C)C)ccc13)C[C@H]2O` (stereo partly drawn) showed an IC50 in the data set with HCT-116 of 79 nM.

`CC(C)N1C[C@H]2C[C@@H]1CN2c1ccc(Nc2nc(-c3ccc4cn[nH]c4c3)cn3ccnc23)cc1`: the IC50 in the data set with NCI-H460 came to 1480 nM; in the data set on NCI-H1299, 720 nM; in the data set with OVCAR-5, 1530 nM; in the data set with A549, 830 nM; in the data set with HEY it was 1010 nM; with ES-2, 1960 nM. Moreover, the IC50 came out at 760 nM in the data set on SK-OV-3, 9170 nM with SW626 and 7390 nM with Caco-2.

Regarding `O=[N+]([O-])c1cccc(-c2cnc3cccnc3n2)c1`, the IC50 against Acetylcholinesterase worked out at 466 nM; against Cholinesterase, 1890 nM.

For the molecule `Cn1cc(-c2cnc3ccn(S(=O)(=O)c4ccccc4)c3n2)cn1`, the inhibition is 92.5% in data set [7] and 93.3% in data set [8].

As for `O=C(OCc1cnccn1)c1ccccc1`, in the data set on Rhizoctonia solani, the EC50 was determined as 0.02 µg/mL (≈ 0.0934 µM).

The record behind these values is ChEMBL document CHEMBL5625161, “Pharmacological activity and mechanism of pyrazines” (Eur J Med Chem, 2023).
